The text below walks through data of patent publication US20240247301A1, “DIAGNOSTIC ASSAY FOR CLASSIC INBORN GALACTOSEMIA” (Ohio State Innovation Foundation, priority 2022, published 2024).

Structures are written as SMILES. Several values for one entry are separate records, joined by “and”; a condition that tells them apart may be missing. Identical values can stand only once. Like-named read-outs stand apart in the source and are kept apart here.

The target in experiment [1] is T1, Duarte GalT (galactose-1-phosphate uridylyltransferase, Duarte variant) (Homo sapiens, UniProt P07902, N314D).
T1 construct: coupled to YidA or PGM-G6PDH (helper enzymes)
T1 sequence (P07902 whole entry N314D): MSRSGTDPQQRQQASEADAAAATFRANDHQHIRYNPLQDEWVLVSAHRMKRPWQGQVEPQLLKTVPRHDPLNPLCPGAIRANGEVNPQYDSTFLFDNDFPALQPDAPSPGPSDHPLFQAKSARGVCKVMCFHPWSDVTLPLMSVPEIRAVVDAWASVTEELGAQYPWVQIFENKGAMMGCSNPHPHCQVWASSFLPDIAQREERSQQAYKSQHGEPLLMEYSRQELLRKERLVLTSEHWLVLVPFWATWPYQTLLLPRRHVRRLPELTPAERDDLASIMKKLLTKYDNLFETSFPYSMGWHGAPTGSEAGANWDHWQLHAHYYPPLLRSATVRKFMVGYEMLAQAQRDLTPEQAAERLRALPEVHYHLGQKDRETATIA
Briefly: Duarte GalT-PGM-G6PDH coupled assay (traditional). The experiment is classed as biochemical. Here is the method: It was sought to compare the Duarte GalT activity determined using the YidA assay versus the existing method. To this end, measurements were conducted using the traditional PGM-G6PDH coupled assay (McCorvie et al. 2013). By titrating the coupled enzymes, the threshold that permits the most sensitive detection was first determined.
(§1) Transformation and overexpression of GalT were performed as described elsewhere (Lai et al. 2021). For purification, a single bacterial colony expressing GalT was used to inoculate 2.5 mL of Dynamite growth medium (Taylor et al. 2017) supplemented with […] kanamycin and grown overnight at 37° ° C. with shaking. This saturated overnight culture was used to seed 250 mL of fresh dynamite medium containing the antibiotic. […]
(§2) Recombinant GalT was purified using the same protocol as that described above for YidA. The concentration of the His6-tagged GalT was determined using a molar extinction coefficient (85,620 M^−1 cm^−1) at 280 nm, and the final preparation was stored at −80° C. in small aliquots, which were subsequently thawed immediately before use in biochemical assays.
An NADH standard curve (data not shown) was generated using relative fluorescence units (RFUs) versus different concentrations of NADH and used as a reference for calculating the NADH produced from the Duarte GalT-PGM-G6PDH coupled assay. […]

For experiment [2], the target named is T1, Duarte GalT (galactose-1-phosphate uridylyltransferase, Duarte variant). Briefly: Duarte GalT-YidA coupled assay (SUMO tag removed from YidA). The experiment is classed as biochemical. Here is the method:
Next, it was sought to obtain recombinant GalT for proof-of-concept assays. The ready availability of the Duarte GalT clone from Addgene (GALTA-c001) led to use of this enzyme in the current studies.
as §1, §2
These 2-μL aliquots were added to a 384-well plate which were pre-dispensed to test wells 18 μL of water and 5 μL of malachite green reagent. […] To determine the Km and kcat values, the initial velocity calculated at each substrate concentration was subject to the Michaelis-Menten curve-fitting option in Kaleidagraph (Synergy Software).

The subject of experiment [3] is wild-type GalT (galactose-1-phosphate uridylyltransferase). As to conditions: cited from earlier work; for Km: read-out: Km (for Gal-1-P).
In experiment [4] the target is Salmonella typhimurium YidA, recombinant wild type, SEQ ID NO: 1 (Salmonella enterica, UniProt Q8ZKY8). Briefly: YidA phosphatase activity (malachite green), dephosphorylation of Glc-1-P. It is filed as biochemical. From the text:
The sugar phosphate phosphatase produced from an engineered cell can be identical to a naturally occurring one, such as YidA or YihX, but placed within a cell in which it is not naturally produced. Examples of this approach are given throughout. The sequence for YidA from Salmonella typhimurium can be found, for example, in NC_492731.1. This sequence corresponds to SEQ ID NO: 1. The gene ID is 1255358. The sequence for YihX from Salmonella typhimurium can be found, for example, in NC_462906.1. This corresponds to SEQ ID NO: 2. The gene ID is 1255552. In one example, genes encoding these proteins can be placed within a cell in which it is not naturally occurring.
Nearly homogeneous recombinant Salmonella YidA by overexpressing it in E. coli SixPack cells were obtained (Lipinszki et al. 2018) (FIG. 3A). N-terminal fusions with a small ubiquitin-like modifier (SUMO) domain were engineered to enhance solubility (Marblestone et al. 2006) and a His6 tag to facilitate affinity purification (FIG. 3A). […] Since YidA is a Mg^2+-dependent phosphatase, its activity with Glc-1-P in the presence of 0-5 mM MgCl2 was first tested and determined that 3 mM MgCl2 was optimal (FIG. 5). […]

A further experiment deals with E. coli YidA. The settings on record: Kuznetsova et al. 2006; cited from earlier work.
In experiment [5] the target is Salmonella typhimurium YihX, recombinant wild type, SEQ ID NO: 2 (Salmonella enterica, UniProt Q7CPC8). Briefly: Kinetic studies of YihX with Glc 1-P and Gal 1-P. It is filed as biochemical. As to conditions: YihX refolded after denaturing purification.
Chain of Salmonella typhimurium YihX, recombinant wild type, SEQ ID NO: 2 (Q7CPC8 entry or part of it): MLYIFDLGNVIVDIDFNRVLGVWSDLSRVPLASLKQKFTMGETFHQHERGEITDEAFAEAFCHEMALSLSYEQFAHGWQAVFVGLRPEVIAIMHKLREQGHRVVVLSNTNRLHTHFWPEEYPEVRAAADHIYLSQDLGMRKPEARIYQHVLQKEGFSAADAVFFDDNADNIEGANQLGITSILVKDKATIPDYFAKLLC
Excerpt: Salmonella YihX was purified after overexpression in E. coli BL21 (DE3) pLysS cells. His6-YihX was purified under denaturing conditions using immobilized metal-affinity chromatography. Following purification, YihX was refolded by stepdown dialysis to remove the denaturant.
The mark [6] stands for this setting: mean ± SD of three independent trials.
The mark [7] stands for this setting: McCorvie et al., 2013 (text: 2014).

Chain of Salmonella typhimurium YidA, recombinant wild type, SEQ ID NO: 1 (Q8ZKY8 entry or part of it): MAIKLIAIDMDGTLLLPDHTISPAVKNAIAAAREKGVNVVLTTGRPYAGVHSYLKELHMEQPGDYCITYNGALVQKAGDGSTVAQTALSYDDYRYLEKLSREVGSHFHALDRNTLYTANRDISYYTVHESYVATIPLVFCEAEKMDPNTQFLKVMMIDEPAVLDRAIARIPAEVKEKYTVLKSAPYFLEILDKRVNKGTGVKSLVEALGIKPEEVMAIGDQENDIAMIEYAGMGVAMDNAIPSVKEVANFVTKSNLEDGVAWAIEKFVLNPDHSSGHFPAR

What is called kcat is the maximal rate divided by the concentration of active sites. One may read the Km as the concentration of substrate that gives half-maximal velocity. For the compound `O=P(O)(O)O[C@H]1O[C@H](CO)[C@H](O)[C@H](O)[C@H]1O` [Gal-1-P, galactose-1-phosphate], the kcat was 4.32 ± 0.12 s⁻¹ in experiment [1] (setting [6]); 4.45 ± 0.2 s⁻¹ and 4.3 ± 0.067 s⁻¹ and 4.22 ± 0.2 s⁻¹ in experiment [1] (single trials, ± curve-fit error, pH 8, 37° C., 0.8 mM UDP-glucose); 14.2 ± 1.33 s⁻¹ and 14.1 ± 0.75 s⁻¹ in experiment [2] (setting [6]); 14.2 ± 1.33 s⁻¹ and 13.3 ± 1.05 s⁻¹ and 14.7 ± 1.17 s⁻¹ in experiment [2] (single trials, ± curve-fit error, pH 8.0, 37° C., 1 mM UDP-glucose); 5,880 min^−1 in experiment [3] (Crews et al., 2000); 816 min⁻¹ in experiment [3] (setting [7]). For the same compound, the kcat in experiment [3] (Tang et al., 2012, table value calculated from reported Vmax with 44 kDa) was 2,400 min^−1 and 2,122* min^−1. Besides, the Michaelis-Menten constant (Km) in experiment [3] (Crews et al., 2000) was 400 µM; in experiment [3] (setting [7]) it was 290 µM; in experiment [3] (Tang et al., 2012), 1250 µM.

As to `O=P(O)(O)O[C@H]1O[C@H](CO)[C@@H](O)[C@H](O)[C@H]1O` [Glc-1-P, α-D-glucose-1-phosphate], the catalytic constant (kcat) was 14.2 ± 0.35 s⁻¹ in experiment [4] (mean ± SE of two independent trials); 13.9 ± 1.07 s⁻¹ and 14.6 ± 1.05 s⁻¹ in experiment [4] (single trials, ± curve-fit error, pH 8, 37° C., 3 mM MgCl2); 20 s⁻¹ with E. coli YidA. For the same compound, in the experiment with E. coli YidA, the Michaelis constant (Km) is 210 µM. For the same compound, the “specificity for Glc 1-P over Gal 1-P” value in experiment [5] is given as 36 fold.
